The text below walks through data of patent US20120196918A1, “PREVENTING ISLET INFLAMMATION AND DYSFUNCTION AND MAINTAINING PROPER GLUCOSE LEVELS BY CONTROLLING eIF5A AND ITS HYPUSINATION” (priority 2009, published 2012).

Data set [1] has as its system STZ-treated C57BL/6J mice. The data set is described as follows: Multiple low-dose streptozotocin (STZ) diabetes model in C57BL/6J mice. It is filed as in vivo, mouse. Here is the method: (§1) To test the role of eIF5A in cytokine-mediated islet dysfunction, efforts were made to identify a mouse model of islet inflammation. The multiple low dose streptozotocin (STZ) model, in which mice are subjected to five daily intraperitoneal doses (at 55 mg/kg body weight) of STZ, is considered to provoke local islet inflammation and cytokine release, in part through the recruitment of CD11c+ dendritic cells that release pro-inflammatory cytokines in the area of STZ-induced cellular destruction (27 and 28).
C57BL/6J mice were injected intraperitoneally with either stabilized siRNA against eIF5A (si-eIF5A) or control siRNA (si-Control) daily for three days, then subjected to the multiple low-dose STZ protocol (see schematic in FIG. 1a). […] The effect of administering si-eIF5A on islet viability following STZ treatment was determined by performing immunohistochemical analysis of the pancreata of mice. […] To quantify the differences in islet mass between STZ-treated and untreated animals, morphometry of insulin-stained pancreatic sections was performed.
Based on the observed data, if hypusination of eIF5A by DHS is required for cytokine responsiveness in islets, then inhibition of DHS in vivo should protect against low dose STZ diabetes. To test this, C57BL/6J mice were treated with GC7 or vehicle and then subjected to low dose STZ injections. GC7 was delivered in one of two different ways: either by daily bolus intraperitoneal injections (4 mg/kg/day) or by continuous subcutaneous delivery (40 μg/kg/h) using implanted osmotic pumps. A protocol similar to that shown in FIG. 1A was employed in these studies, with GC7 injections or pump implants starting 3 days prior to STZ injections.
Small interfering RNA (siRNA) studies: Stabilized siRNAs for intraperitoneal injections were custom synthesized by Dharmacon using the siSTABLE® modification. Groups of 10 week-old C57BL/6J male mice (from Jackson Labs) received daily intraperitoneal injections of 1.6 mg/kg siRNA prepared in 0.9% saline or vehicle alone (0.9% saline) for 3 days. For in vitro studies, islets from each group of injected mice were harvested on the fourth day and pooled prior to analysis. Injections with each siRNA were performed on at least 3 different occasions. siRNA sequences were as follows: siControl, 5′-[…]-3′; si-eIF5A, 5′-[…]-3′. For siRNA studies in the rat β cell-derived line INS-1 (832/13), cells were transfected with a SMART Pool® siRNA against rat eIF5A1 (Dharmacon, #L-083855-01) or non-targeting control siRNA #1 (Dharmacon) using DharmaFECT® transfection reagent (Dharmacon).
Immunostaining and morphometric assessment of β cell mass: Immunostaining of pancreatic sections proceeded as described previously (72). For assessment of islet cell death in pancreatic sections, the technique of terminal deoxynucleotidyl transferase dUTP nick end labeling (TUNEL) was performed using biotinylated 16-dUTP (Roche) and Texas Red Neutravidin (Invitrogen). Digital images of each islet at 40× magnification were acquired using an Axio-Observer D1 microscope (Zeiss) inverted fluorescent microscope equipped with a high-resolution color camera. TUNEL-positive/insulin-positive nuclei were counted manually by an observer blinded to sample identity, and data were re-coded as the average number of TUNEL-positive nuclei per islet. β cell mass was calculated as described previously (73), but with some modifications. Briefly, pancreata from 3 mice per treatment group were rapidly dissected and weighed, fixed in 4% paraformaldehyde, paraffin-embedded, and longitudinally sectioned. Three sections/pancreas (approx. 75 μm apart) were subsequently immunostained for insulin and counterstained with hematoxylin as described (74), and digital images of each section at 10× magnification were acquired on an Axio-Observer Z1 microscope (Zeiss) fitted with an AxioCam high resolution color camera. […]

Data set [2] has as its system iNOS. The note with it: cited from earlier work.
For the next data set, the system named is eIF5A. The data set is described as follows: eIF5A nuclear-to-cytoplasmic translocation in INS-1 cells (immunofluorescence). It is filed as cell-based, rat. The note with it: pretreatment, then cytokines 4 h. Here is the method:
Given the striking retention of Nos2 transcripts in the absence of eIF5A-Hyp, it was of interest to determine whether the intracellular distribution of eIF5A accounts for its effect on Nos2 nucleo-cytoplasmic shuttling. Immunofluorescence of eIF5A in fixed INS-1 cells, were thus performed. […] Upon treatment of cells with cytokines, there was a shift in the eIF5A distribution pattern from the nucleus to the cytoplasm.
Cytokine and inhibitor incubation studies: For cytokine incubation assays, a 1000× cocktail of cytokines containing 5 μg/ml IL1β, 10 μg/ml TNFα, and 100 μg/ml IFNγ (all prepared in 0.1% BSA in Tris-buffered saline) was applied at 1× final concentration to groups of 50 islets or 1×10^6 INS-1 (832/13) cells for a total of 4 h at 37° C. For GC7 incubation studies, GC7 was prepared at a stock concentration of 125 mM in 10 mM acetic acid and applied to cultures of 50 islets or 1×10^6 INS-1 cells to obtain the final concentrations indicted in the figures. […]
Immunofluorescence: Immunofluorescence of INS-1 cells proceeded essentially as described previously (71), using primary antibodies to eIF5A1 and secondary anti-mouse Alexa-488-conjugated antibody (Invitrogen), or by direct visualization of GFP fusion proteins at 488 nm. […] Quantitation of cytoplasic-to-nuclear ratios of eIF5A staining was performed using Axio-Vision Software, v. […]

In another data set the test system is Nos2 mRNA. The data set is described as follows: Nuclear export of Nos2 mRNA, subcellular fractionation of cytokine-treated INS-1 cells. It is filed as cell-based, rat. Here is the method: Subcellular fractionation studies: Nuclear and cytoplasmic fractions of 1×10^6 cytokine-treated INS-1 cells exposed to vehicle, leptomycin B (20 ng/ml), or GC7 (100 μM) were prepared using the method of Dignam, et al. (76). Total RNA was isolated from nuclear and cytoplasmic fractions using the RNeasy® RNA isolation kit (Qiagen).
Quantitative RT-PCR: Five micrograms of total RNA from islets or INS-1 cells were reverse-transcribed as detailed previously (77). cDNA was subjected to quantitative PCR using SYBR Green-based technology and published primers for mouse Ins1/2 pre-mRNA (78) and QuantiTech® primers (Qiagen) for all other mouse genes. The Assay on Demand® kit (Applied Biosystems) was used to amplify rat genes in INS-1 cells and human genes in human islets. Thermal cycling was performed according to manufacturer's instructions, and the identity of each PCR product was verified by automated sequencing. All samples were corrected for total input RNA as quantitated by an Experion® (Bio-Rad) bioanalyzer. All data represent the average of triplicate determinations from at least 3 independent experiments.

Data set [3] relates to iNOS. The experiment in a line: Cytokine-induced iNOS protein in INS-1 cells (immunoblot). The note with it: increasing inhibitor concentrations overnight, cytokines 4 h. It is filed as cell-based, rat. From the text:
eIF5A1 and eIF5A2 are the only proteins known to contain the unique amino acid hypusine at position 50. Hypusine is formed as a posttranslational modification of residue Lys50 in a reaction requiring spermidine and catalyzed by the sequential actions of the enzymes deoxyhypusine synthase (DHS) and deoxyhypusine hydroxylase (DOHH) (Chen, K Y, and Liu, A Y. Biochemistry and function of hypusine formation on eukaryotic initiation factor 5A. Biol Signals. 1997; 6(3):105-109). […] To further investigate the mechanism of eIF5A-regulated translation of Nos2, studies were performed following overnight incubation of cells with mimosine (an inhibitor of DOHH) and GC7 (an inhibitor of DHS). […] Similar data using GC7 were obtained in primary mouse islets (data not shown) and in human islets (FIGS. 5F and 5G).
Because GC7 is known to be inactivated by the action amine oxidases, which are abundant in serum, typical studies with GC7 in the literature have used aminoguanidine to inhibit amine oxidases (16). […] To rule out possible adverse effects of GC7 on cell viability, quantitative 2 color fluorescence analysis of live (calcein-AM-positive) and dead (ethidium homodimer-1-positive) cells were performed using fluorescence cytometry.
Cytokine and inhibitor incubation studies: For cytokine incubation assays, a 1000× cocktail of cytokines containing 5 μg/ml IL1β, 10 μg/ml TNFα, and 100 μg/ml IFNγ (all prepared in 0.1% BSA in Tris-buffered saline) was applied at 1× final concentration to groups of 50 islets or 1×10^6 INS-1 (832/13) cells for a total of 4 h at 37° C. For GC7 incubation studies, GC7 was prepared at a stock concentration of 125 mM in 10 mM acetic acid and applied to cultures of 50 islets or 1×10^6 INS-1 cells to obtain the final concentrations indicted in the figures. Where needed, GC7 was protected from amine oxidases in serum by addition of 1 mM aminoguanidine (Sigma). Cells were incubated with GC7 overnight (˜16 h) at 37° C. prior to analysis. Cells were exposed to Leptomycin B (Cayman Chemicals) for 3 hours; leptomycin B was prepared at a 1000× stock concentration of 20 μg/ml in ethanol.
Immunoblot and nitrite and iNOS assays: Whole cell extracts were resolved by electrophoresis on a 4-20% SDS-polyacrylamide gel, followed by immunoblot using anti-eIF5A1, anti-eIF5A2, anti-iNOS, anti-GFP, or anti-actin primary antibodies and fluorophore-labeled secondary antibodies. Immunoblots were visualized using the Li-Cor® Odyssey® system (Li-Cor Biosciences) and quantitated by scanning fluorometry using Odyssey Imaging v. […] Nitrite was quantitated by measuring nitric oxide-derived nitrite from INS-1 cell culture medium using the Griess reagent (Promega) according to the manufacturer's recommendations. iNOS activity was measured using a commercially available kit (Cayman).
In general terms: A western blot detects proteins with antibodies after separation by electrophoresis.

Data set [4] concerns STZ-treated NOD/Scid-(IL-2Rγ-null) mice. The data set is described as follows: Multiple low-dose STZ model in immune-deficient NOD/Scid-(IL-2Rγ-null) mice. The note with it: multiple low-dose STZ (data not shown for si-eIF5A). The format is in vivo, mouse. Here is the method:
as §1
As noted, low-dose STZ-induced islet dysfunction involves at least two mechanisms: an inflammatory mechanism that is dependent upon cytokine release from immune cells and a direct toxic mechanism on the islet itself. […] Next, islets from 3 C57BL/6J mice per group 24 h after the initial STZ treatment were isolated and pooled and their iNOS content determined by immunoblot. […]
Studies in vivo: Daily STZ injections to groups of 10 week-old C57BL/6J and NOD/Scid-(IL-2Rγ-null) mice proceeded as described previously (30) at a dose of 55 mg STZ per kg mouse weight for 5 days. […] Serum was analyzed using a Luminex system (Millipore) and a mouse cytokine/chemokines Panel 1 mutliplex kit (Millipore).

For “5′-AAAGUCGACCUUCAGUAAGGA-3′ (stabilizing modifications, further chemistry not given here) [si-Control, control siRNA, stabilized]”, the “average fasting blood glucose” value in data set [1] (siRNA 1.6 mg/kg i.p. daily for 3 days, then multiple low-dose STZ, day 7) was 159 mg/dL. Further, the “reduction of β cell mass compared to non-STZ-treated controls” value in data set [1] (siRNA i.p., multiple low-dose STZ, morphometry of insulin-stained sections) was 2.8 fold.
Consider `N=C(N)NN` [aminoguanidine], for which the “inhibition of iNOS catalytic activity (literature)” value in the data set on iNOS [2] was “effective inhibitor of iNOS catalytic activity”.
In the case of `CCC(=C/[C@H](C)C/C=C/C(C)=C/[C@@H](C)C(=O)[C@@H](C)[C@H](O)[C@@H](C)C/C(C)=C/C(=O)O)/C=C/[C@@H]1OC(=O)C=C[C@@H]1C` [leptomycin B], in the data set with eIF5A, the “cytokine-induced translocation of eIF5A” value is given as “failed to induce the nuclear to cytoplasmic translocation of eIF5A”. The Nos2 export blocked entry in the data set on Nos2 mRNA (cytokine-treated INS-1 cells) is reported as “about 50%”. Besides, the “distribution of mRNAs between nuclear and cytoplasmic fractions” value with Nos2 mRNA (cytokine-treated, GC7 100 μM overnight or leptomycin B 20 ng/ml 3 h) is “relative retention of Nos2, Actb, and Nfkb1 (but not Gapdh) in the nuclear fraction”.
As to `NC(Cn1ccc(=O)c(O)c1)C(=O)O` (stereo not shown) [mimosine], the “iNOS protein after cytokines” value in the data set on iNOS [3] is “dose-dependent attenuation”.
In the case of “IL-1Ra: interleukin-1 receptor antagonist, the IL-1Ra anakinra”, the “protection against glucose intolerance” value in data set [4] is “did not protect against glucose intolerance”. Further, the “glucose intolerance in IPGTT with IL-1Ra” value in data set [1] (concurrent IL-1Ra treatment, multiple low-dose STZ) is “attenuated glucose intolerance only in immune-competent mice”. The “serum IL-6 levels” value in data set [1] (concurrent treatment with STZ) is “dramatic drop in serum IL-6 levels”.
